Results taken from patent US7138361B2, “Herbicidal heterocycles” (E. I. du Pont de Nemours and Company, priority 2000, dated 2006).

Tests used:
Assay type in all cases: in vivo
[1] = tested on: Sunflower; assay: Test C preemergence; settings: Rate 250 g/ha, scale 0 to 100, 0 no effect, 100 complete control
[2] = tested on: soybean (Glycine max); assay: Test C preemergence; settings: preemergence
Excerpt: (§1) Seeds of plant species selected from bermudagrass (Cynodon dactylon), Surinam grass (Brachiaria decumbens), cocklebur (Xanthium strumarium), corn (Zea mays), crabgrass (Digitaria sanguinalis), woolly cupgrass (Eriochloa villosa), giant foxtail (Setaria faberii), goosegrass (Eleusine indica), johnsongrass (Sorghum halepense), kochia (Kochia scoparia), lambsquarters (Chenopodium album), morningglory (Ipomoea hederacea), yellow nutsedge (Cyperus esculentus), pigweed (Amaranthus retroflexus), common ragweed (Ambrosia elatior), soybean (Glycine max) and velvetleaf (Abutilon theophrasti) were planted and treated preemergence with test chemicals formulated in a non-phytotoxic solvent mixture which included a surfactant.
(§2) At the same time, plants selected from these crop and weed species and also winter barley (Hordeum vulgare), blackgrass (Alopecurus myosuroides), canary grass (Phalaris minor), chickweed (Stellaria media), downy brome (Bromus tectorum), green foxtail (Setaria viridis), Italian ryegrass (Lolium multiflorum), wheat (Triticum aestivum), wild oat (Avena fatua) and windgrass (Apera spica-venti) were treated with postemergence applications of some of the test chemicals formulated in the same manner. Plants ranged in height from 2 to 18 cm (1- to 4-leaf stage) for postemergence treatments. Plant species in the flooded paddy test consisted of rice (Oryza saliva), smallflower flatsedge (Cyperus difformis), duck salad (Heteranthera limosa) and barnyardgrass (Echinochloa crus-galli) grown to the 2-leaf stage for testing. Treated plants and controls were maintained in a greenhouse for 12 to 14 days, after which time all species were compared to controls and visually evaluated. Plant response ratings, summarized in Table C, are based on a scale of 0 to 100 where 0 is no effect and 100 is complete control. A dash (-) response means no test result.

[3] = tested on: cocklebur (Xanthium strumarium); assay: Test C preemergence
Excerpt: as §1, §2

[4] = tested on: Surinam grass (Brachiaria decumbens); assay: Test C preemergence
Excerpt: as §1, §2

[5] = tested on: kochia (Kochia scoparia); assay: Test C preemergence
Excerpt: as §1, §2

[6] = tested on: woolly cupgrass (Eriochloa villosa); assay: Test C preemergence
Excerpt: as §1, §2

[7] = tested on: bermudagrass (Cynodon dactylon); assay: Test C preemergence
Excerpt: as §1, §2

[8] = tested on: crabgrass (Digitaria sanguinalis); assay: Test C preemergence
Excerpt: as §1, §2

[9] = tested on: giant foxtail (Setaria faberii); assay: Test C preemergence
Excerpt: as §1, §2

[10] = tested on: pigweed (Amaranthus retroflexus); assay: Test C preemergence
Excerpt: as §1, §2

[11] = tested on: corn (Zea mays); assay: Test B preemergence
In short: (§3)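 Preemergence: seeds planted and treated with test chemicals in non-phytotoxic solvent with surfactant; postemergence on plants 2–18 cm (1- to 4-leaf stage). Kept in greenhouse 13–15 days, then visually rated against controls on a 0 (no effect) to 100 (complete control) scale.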

[12] = tested on: cocklebur (Xanthium strumarium); assay: Test B preemergence
In short: as §3

[13] = tested on: Surinam grass (Brachiaria decumbens); assay: Test B preemergence
In short: as §3

[14] = tested on: velvetleaf (Abutilon theophrasti); assay: Test B preemergence
In short: as §3

[15] = tested on: crabgrass (Digitaria sanguinalis); assay: Test B preemergence
In short: as §3

[16] = tested on: giant foxtail (Setaria faberii); assay: Test B preemergence
In short: as §3

[17] = tested on: pigweed (Amaranthus retroflexus); assay: Test B preemergence
In short: as §3

[18] = tested on: rice (Oryza saliva); assay: Test B preemergence
In short: as §3

[19] = tested on: morning glory (Ipomoea hederacea); assay: Test B preemergence
In short: as §3

[20] = tested on: barnyardgrass (Echinochloa crus-galli); assay: Test B preemergence
In short: as §3

[21] = tested on: lambsquarters (Chenopodium album); assay: Test B preemergence
In short: as §3

[22] = Rate 62 g/ha, scale 0 to 100, 0 no effect, 100 complete control
[23] = Rate 125 g/ha, scale 0 to 100, 0 no effect, 100 complete control
[24] = preemergence, Rate 31 g/ha, scale 0 to 100
[25] = preemergence, Rate 250 g/ha, visual evaluation after 12 to 14 days
[26] = Preemergence, Rate 500 g/ha, scale 0 to 100, 0 no effect, 100 complete control
[27] = preemergence, Rate 125 g/ha, scale of 0 to 100 where 0 is no effect and 100 is complete control, 13 to 15 days

SMILES: CCC(CC)c1ccn(C2CCN(c3ccc(C)c(OC)c3)C2=O)n1 (centres unmarked) [Compound 81]
- Plant response rating, Sunflower [1]: 0
- Plant response rating, Soybean ([2]; Rate 31 g/ha, scale 0 to 100): 30
- Plant response rating, Soybean ([2]; Rate 250 g/ha, scale 0 to 100, 0 no effect, 100 complete control): 100
- Plant response rating, Cocklebur [3, 22]: 0
- Plant response rating, Cocklebur [3, 23]: 0
- Plant response rating, Cocklebur [3, 24]: 0
- Plant response rating (0 to 100), Cocklebur [3, 25]: 20
- Plant response rating, Surinam grass [4, 22]: 20
- Plant response rating, Surinam grass [4, 23]: 50
- Plant response rating, Surinam grass [4, 24]: 0
- Plant response rating (0 to 100), Surinam grass [4, 25]: 100
- Plant response rating, Kochia [5, 22]: 100
- Plant response rating, Kochia [5, 23]: 100
- Plant response rating, Kochia [5, 24]: 100
- Plant response rating (0 to 100), Kochia [5, 25]: 100
- Plant response rating, Cupgrass, Woolly [6, 22]: 30
- Plant response rating, Cupgrass, Woolly [6, 23]: 30
- Plant response rating, Cupgrass, Woolly [6, 24]: 0
- Plant response rating (0 to 100), Cupgrass, Woolly [6, 25]: 100
- Plant response rating, Bermudagrass [7, 22]: 100
- Plant response rating, Bermudagrass [7, 23]: 100
- Plant response rating, Bermudagrass [7, 24]: 100
- Plant response rating (0 to 100 where 0 is no effect and 100 is complete control), Bermudagrass [7, 25]: 100
- Plant response rating, Crabgrass [8, 22]: 100
- Plant response rating, Crabgrass [8, 23]: 100
- Plant response rating, Crabgrass [8, 24]: 60
- Plant response rating (0 to 100), Crabgrass [8, 25]: 100
- Plant response rating, Foxtail, Giant [9, 22]: 90
- Plant response rating, Foxtail, Giant [9, 23]: 100
- Plant response rating, Foxtail, Giant [9, 24]: 30
- Plant response rating (0 to 100), Foxtail, Giant [9, 25]: 100
- Plant response rating, Pigweed [10, 23]: 100
- Plant response rating, Pigweed [10, 24]: 100
- Plant response rating, Pigweed ([10]; preemergence, Rate 250 g/ha, scale 0 to 100, 0 no effect, 100 complete control): 100
- Plant response rating, Corn [11, 26]: 30
- Plant response rating, Corn [11, 27]: 0
- Plant response rating, Cocklebur [12, 26]: 90
- Plant response rating, Cocklebur [12, 27]: 0
- Plant response rating, Surinam grass [13, 26]: 100
- Plant response rating, Surinam grass [13, 27]: 90
- Plant response rating, Velvetleaf [14, 26]: 80
- Plant response rating, Velvetleaf [14, 27]: 70
- Plant response rating, Crabgrass [15, 26]: 100
- Plant response rating, Crabgrass [15, 27]: 100
- Plant response rating, Foxtail, Giant [16, 26]: 100
- Plant response rating, Foxtail, Giant [16, 27]: 100
- Plant response rating, Pigweed [17, 26]: 100
- Plant response rating, Pigweed [17, 27]: 100
- Plant response rating, Rice [18, 26]: 90
- Plant response rating, Rice [18, 27]: 50
- Plant response rating, Morningglory [19, 26]: 100
- Plant response rating, Morningglory [19, 27]: 30
- Plant response rating, Barnyardgrass [20, 26]: 100
- Plant response rating, Barnyardgrass [20, 27]: 100
- Plant response rating, Lambsquarters [21, 26]: 100
- Plant response rating, Lambsquarters [21, 27]: 100
